Tests used:
hGSTP1-1 = hGSTP1-1 (Homo sapiens, UniProt P09211); test: Specific activity / enzyme kinetics of GST towards compounds in presence of GSH; format: biochemical; conditions: compound 50 µM, 37 °C
hGSTA1-1 = target: T1, hGSTA1-1 (Homo sapiens, UniProt P08263); test: as above; format: biochemical; conditions: compound 50 µM, 37 °C
T1 sequence (P08263 1-222): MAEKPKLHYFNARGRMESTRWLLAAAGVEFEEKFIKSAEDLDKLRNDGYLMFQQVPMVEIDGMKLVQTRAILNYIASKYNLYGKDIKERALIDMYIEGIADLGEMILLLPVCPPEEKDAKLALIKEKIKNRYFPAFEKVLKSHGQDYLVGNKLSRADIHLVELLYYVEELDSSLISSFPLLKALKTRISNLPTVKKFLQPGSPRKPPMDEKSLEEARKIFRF

hGSTM1-1 = target: T2, hGSTM1-1 (Homo sapiens, UniProt P09488); test: as above; format: biochemical; conditions: compound 50 µM, 37 °C
T2 sequence (P09488 2-218 limits assumed): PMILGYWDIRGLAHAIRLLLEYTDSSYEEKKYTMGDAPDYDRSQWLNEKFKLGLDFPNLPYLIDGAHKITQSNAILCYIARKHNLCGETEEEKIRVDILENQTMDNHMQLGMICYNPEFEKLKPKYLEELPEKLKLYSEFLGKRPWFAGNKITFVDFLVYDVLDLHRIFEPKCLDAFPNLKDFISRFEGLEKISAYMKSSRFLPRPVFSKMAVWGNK

HL-60 cells = test: MTT cell proliferation assay; format: cell-based; conditions: Homo sapiens, HL-60, 72 h, read-out: IC50 anti-proliferative activity

hGSTP1-1, sequence (P09211 2-210 limits assumed): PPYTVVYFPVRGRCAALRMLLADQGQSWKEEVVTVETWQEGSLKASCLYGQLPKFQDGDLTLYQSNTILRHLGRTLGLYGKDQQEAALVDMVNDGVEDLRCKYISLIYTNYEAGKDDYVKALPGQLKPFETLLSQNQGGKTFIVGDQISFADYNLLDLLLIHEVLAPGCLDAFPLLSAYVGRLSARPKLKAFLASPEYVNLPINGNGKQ

Compound	GSTP1-1 specific activity (hGSTP1-1) [µmol/mg/min]	GSTA1-1 specific activity (hGSTA1-1) [µmol/mg/min]	GSTM1-1 specific activity (hGSTM1-1) [µmol/mg/min]	IC50 (HL-60 cells) [µM]
CCOC(=O)N1CCCN(/[N+]([O-])=N/Oc2ccc([N+](=O)[O-])cc2[N+](=O)[O-])CC1 [4a]	0.16	16.8	38	–
COC(=O)N1CCN(/[N+]([O-])=N/Oc2ccc([N+](=O)[O-])cc2[N+](=O)[O-])CC1 [4b]	0.98	45.1	102	–
CCOC(=O)N1C(C)CN(/[N+]([O-])=N/Oc2ccc([N+](=O)[O-])cc2[N+](=O)[O-])CC1C (stereo not shown) [3c, O^2-(2,4-Dinitrophenyl) 1-[(4-Ethoxycarbonyl)-3,5-dimethylpiperazin-1-yl]diazen-1-ium-1,2-diolate]	1.17	70.3	172	–
CCOC(=O)N1CCN(/[N+]([O-])=N/Oc2ccc([N+](=O)[O-])cc2[N+](=O)[O-])CC1C (stereo not shown) [3a, O^2-(2,4-Dinitrophenyl) 1-[(4-Ethoxycarbonyl)-3-methylpiperazin-1-yl]diazen-1-ium-1,2-diolate]	1.15	55.5	112	–
CCOC(=O)N1CCN(/[N+]([O-])=N/Oc2ccc([N+](=O)[O-])cc2[N+](=O)[O-])CC1 [JS-K, O^2-(2,4-dinitrophenyl) 1-[(4-ethoxycarbonyl)piperazin-1-yl]diazen-1-ium-1,2-diolate]	1.36	66.3	126	0.2 to 0.5
CCCOC(=O)N1CCN(/[N+]([O-])=N/Oc2ccc([N+](=O)[O-])cc2[N+](=O)[O-])CC1 [4c]	1.2	59.0	126.3	–
CCOC(=O)N1CCN(/[N+]([O-])=N/Oc2ccc([N+](=O)[O-])cc2[N+](=O)[O-])C(C)C1 (stereo not shown) [3b, O^2-(2,4-Dinitrophenyl) 1-[(4-Ethoxycarbonyl)-2-methylpiperazin-1-yl]diazen-1-ium-1,2-diolate]	0.88	47.0	110	–
CCOC(=O)N1CC(C)N(/[N+]([O-])=N/Oc2ccc([N+](=O)[O-])cc2[N+](=O)[O-])CC1C (stereo not shown) [3d, O^2-(2,4-Dinitrophenyl) 1-[(4-Ethoxycarbonyl)-2,5-dimethylpiperazin-1-yl]diazen-1-ium-1,2-diolate]	0.14	17.6	49	–

— publication PMC2631660 (Bioorganic & medicinal chemistry, 2008)
